≈ marks a conversion by molar mass, not a printed value. Like-named read-outs stand apart in the source and are kept apart here. A value given as a limit tells only on which side of the number the result lay.

The test system of series [1] is S. aureus (Smith strain). Description: Efficacy, ip dosing of mice infected with S. aureus. Conditions: suspensions in saline, 5 animals, FIG. 2. In kind it is in vivo. The text has this: Compounds 12, 19, 26, and 29 were given by the intraperitoneal (ip) route as suspensions in saline to mice previously infected with S. aureus (Smith strain). Vancomycin was used as a positive drug control and saline was used as a negative vehicle control.

The target of another series is B.subtilis pol IIIC (Bacillus subtilis, UniProt P13267). Briefly: biochemical. The method in brief:
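Purified pol IIIC incorporating [3H]-dTMP into nicked calf-thymus DNA with Mg2+, DTT and glycerol, 10 min at 30 °C; acid-insoluble radioactivity counted, in triplicate.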

The test system of another series is B. subtilis. Briefly: Inhibition of bacterial growth on agar plates (MIC). In kind it is cell-based. Conditions: Bacillus subtilis, 37° C., 24 hours. The method in brief:
(§1)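 Agar dilution: compounds from DMSO or water stocks mixed into medium with 1.3% agar at 60° C; 500-1000 CFU plated, incubated 37° C for 24 hours. MIC is the lowest concentration with no colony formation.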

The test system of the next series is E. fecalis. The series is described as above. In kind it is cell-based. Conditions: 37° C., 24 hours. The method in brief: as §1
The test system of another series is E. fecium. The description is as above. In kind it is cell-based. Conditions: 37° C., 24 hours. The method, boiled down: as §1
In a further series the test system is S.aureus (Smith). The description is as above. In kind it is cell-based. Conditions: Staphylococcus aureus, 37° C., 24 hours. The method in brief:
as §1

The nature of the next series: Water solubility. Conditions: 25° C. stated for Compound 35. In kind it is physicochemical. An excerpt:
The compounds described herein have increased water solubility; some of the compounds can form salts, such as with inorganic or organic acids or with alkali metal bases, thus greatly increasing their solubilities. […] The improved water solubilities are a distinct advantage in formulation and in dosing of animals for testing, and for ultimate therapeutic use in humans.

Series [2] is described as follows: Pharmacokinetics in mice (plasma concentration by HPLC). Conditions: saline solution. In kind it is in vivo. An excerpt:
Compound 59 was given to mice in simple saline solutions by various routes—subcutaneous (sc), intravenous (iv), and orally (po). High performance liquid chromatography (HPLC) on a reverse phase C 18 column was used to monitor the concentration of the compound in animal plasma, and the results were plotted as a function of time, as shown in FIG. 1.
Tmax, time to peak concentration; Cmax, peak concentration; T½, half-life; AUC(0-t), area under the curve, from 0 to time t; AUC(0-60), area under the curve, from 0 to 60 minutes; Vd, volume of distribution; Cl, clearance.

Series [3] deals with S. aureus (Smith strain). Briefly: Efficacy, sc dosing of mice infected ip with S. aureus. In kind it is in vivo. Conditions: Compound 59 given sc, relative to vehicle control, FIG. 3. An excerpt:
Compound 59 was give by the sc route to mice infected by the ip route with S. aureus (Smith strain).

Sequence of B.subtilis pol IIIC (P13267 whole entry): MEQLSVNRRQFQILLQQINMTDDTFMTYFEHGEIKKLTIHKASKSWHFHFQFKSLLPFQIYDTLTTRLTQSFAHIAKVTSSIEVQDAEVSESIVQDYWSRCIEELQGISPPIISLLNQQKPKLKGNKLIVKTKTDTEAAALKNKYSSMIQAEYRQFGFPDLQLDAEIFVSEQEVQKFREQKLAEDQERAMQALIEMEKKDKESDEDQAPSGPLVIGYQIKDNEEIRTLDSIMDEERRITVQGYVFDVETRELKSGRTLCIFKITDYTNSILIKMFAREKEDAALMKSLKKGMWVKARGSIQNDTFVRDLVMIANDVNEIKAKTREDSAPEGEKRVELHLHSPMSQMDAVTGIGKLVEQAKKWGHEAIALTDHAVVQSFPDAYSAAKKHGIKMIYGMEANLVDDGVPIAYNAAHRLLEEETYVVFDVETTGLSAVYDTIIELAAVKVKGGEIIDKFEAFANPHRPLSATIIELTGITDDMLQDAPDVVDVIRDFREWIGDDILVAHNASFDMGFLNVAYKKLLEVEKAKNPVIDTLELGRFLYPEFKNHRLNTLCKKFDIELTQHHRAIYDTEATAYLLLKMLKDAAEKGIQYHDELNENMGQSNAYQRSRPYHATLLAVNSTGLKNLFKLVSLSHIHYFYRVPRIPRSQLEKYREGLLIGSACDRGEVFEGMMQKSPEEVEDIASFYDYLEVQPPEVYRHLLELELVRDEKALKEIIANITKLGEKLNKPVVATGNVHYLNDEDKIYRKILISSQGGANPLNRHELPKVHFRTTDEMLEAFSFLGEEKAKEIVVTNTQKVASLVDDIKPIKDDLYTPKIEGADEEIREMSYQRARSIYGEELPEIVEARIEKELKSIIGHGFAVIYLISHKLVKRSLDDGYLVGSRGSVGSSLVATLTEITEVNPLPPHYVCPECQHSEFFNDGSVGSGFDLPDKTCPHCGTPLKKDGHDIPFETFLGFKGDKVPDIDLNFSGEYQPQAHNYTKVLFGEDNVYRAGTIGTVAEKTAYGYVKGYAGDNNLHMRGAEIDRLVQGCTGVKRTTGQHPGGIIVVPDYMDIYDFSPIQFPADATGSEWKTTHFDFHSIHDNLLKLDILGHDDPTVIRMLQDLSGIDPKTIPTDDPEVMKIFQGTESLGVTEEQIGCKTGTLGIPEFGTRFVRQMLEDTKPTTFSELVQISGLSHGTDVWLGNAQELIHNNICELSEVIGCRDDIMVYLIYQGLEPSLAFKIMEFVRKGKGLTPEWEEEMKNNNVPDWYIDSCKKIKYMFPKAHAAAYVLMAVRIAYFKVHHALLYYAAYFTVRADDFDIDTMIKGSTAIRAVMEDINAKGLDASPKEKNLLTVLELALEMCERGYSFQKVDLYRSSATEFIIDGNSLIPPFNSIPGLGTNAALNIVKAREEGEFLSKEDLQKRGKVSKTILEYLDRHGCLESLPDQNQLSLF

`CCc1cc(Nc2cc(=O)n(CCCCCO)c(=O)[nH]2)ccc1C` [Compound 26, 3-(5-Hydroxypentyl)-6-(3-ethyl-4-methylanilino)uracil]: the animals protected in the series on S. aureus (Smith strain) [1] is 1 of the 5.

At B.subtilis pol IIIC, `CCc1cc(Nc2cc(=O)n(CCOCCO)c(=O)[nH]2)ccc1C` [Compound 29, 3-[2-(2-Hydroxyethoxy)ethyl]-6-(3-ethyl-4-methylanilino)uracil] came in with a Ki of 0.125 µM. For the same molecule, the MIC was less than 1.25 µg/mL against B. subtilis, 5 µg/mL (≈ 15 µM) in the series on E. fecalis, 5 µg/mL (≈ 15 µM) with E. fecium and 5 µg/mL (≈ 15 µM) in the series with S.aureus (Smith). The animals protected in the series with S. aureus (Smith strain) [1] was 4 of the 5.

Consider `CCc1cc(Nc2cc(=O)n(CCCCN3CCOCC3)c(=O)[nH]2)ccc1C` [Compound 35, 3-[4-(N-morpholino)butyl]-6-(3-ethyl-4-methylanilino)uracil], for which, at B.subtilis pol IIIC (truncated assay, apparent inhibitor constant, read-out: K1 B.subtilis pol IIIC), the Ki came to 0.048 µM. Also, the minimum inhibitory concentration (MIC) with B. subtilis stood at 2.5 µg/mL (≈ 6.47 µM); against E. fecalis, 5 µg/mL (≈ 12.9 µM); against E. fecium, 2.5 µg/mL (≈ 6.47 µM); in the series with S.aureus (Smith), 5 µg/mL (≈ 12.9 µM). The same molecule came in with a solubility in the series “Water solubility” of less than 1 mg/mL.

In “Water solubility”, `CCc1cc(Nc2cc(=O)n(CCCCN3CCOCC3)c(=O)[nH]2)ccc1C.Cl` [Compound 59, 3-[4-(N-morpholino)butyl]-6-(3-ethyl-4-methylanilino)uracil hydrochloride] yielded a solubility of more than 60 mg/mL. For the same molecule, the AUC(0-t) is 3900 ng·h/mL in series [2] (mouse, plasma, iv, 20 mg/kg, iv, 20 mg/kg, 0-120, read-out: AUC(0-t) (converted)); 3400 ng·h/mL in series [2] (mouse, plasma, iv, 20 mg/kg, iv, 20 mg/kg, read-out: AUC(0-60) (converted)); 6770 ng·h/mL in series [2] (mouse, plasma, sc, 20 mg/kg, sc, 20 mg/kg, (0-180), read-out: AUC(0-t) (converted)); 3330 ng·h/mL in series [2] (mouse, plasma, sc, 20 mg/kg, sc, 20 mg/kg, read-out: AUC(0-60) (converted)); 26900 ng·h/mL in [2] (mouse, plasma, sc, 200 mg/kg, sc, 200 mg/kg, (0-180), read-out: AUC(0-t) (converted)); 10600 ng·h/mL in series [2] (mouse, plasma, sc, 200 mg/kg, sc, 200 mg/kg, read-out: AUC(0-60) (converted)). Further, the AUC(0-t) in series [2] (mouse, plasma, sc, 400 mg/kg, sc, 400 mg/kg, (0-360), read-out: AUC(0-t) (converted)) is 75000 ng·h/mL; in series [2] (mouse, plasma, sc, 400 mg/kg, sc, 400 mg/kg, read-out: AUC(0-60) (converted)) it was 19800 ng·h/mL. Besides, the Cmax in series [2] (mouse, plasma, iv, 20 mg/kg) was found to be 27400 ng/mL; in [2] (mouse, plasma, sc, 20 mg/kg) it was 4600 ng/mL; in [2] (mouse, plasma, sc, 200 mg/kg) it was 15000 ng/mL; in series [2] (mouse, plasma, sc, 400 mg/kg), 24100 ng/mL. In [2] (mouse, plasma, iv, 20 mg/kg), this molecule had a clearance of 77 mL/min/kg. Besides, the half-life amounted to 39 min in [2] (mouse, plasma, iv, 20 mg/kg); 149 min in series [2] (mouse, plasma, sc, 20 mg/kg); 132 min in [2] (mouse, plasma, sc, 200 mg/kg); 373 min in series [2] (mouse, plasma, sc, 400 mg/kg). The time to peak (Tmax) was 0 min in series [2] (mouse, plasma, iv, 20 mg/kg, ncm fit); 5 min in [2] (mouse, plasma, sc, 20 mg/kg); 30 min in series [2] (mouse, plasma, sc, 200 mg/kg); 30 min in series [2] (mouse, plasma, sc, 400 mg/kg). Further, the Vd in series [2] (mouse, plasma, iv, 20 mg/kg, read-out: Vd) was determined as 4.3 L/kg; in series [2] (sc, 20 mg/kg), 6.5 L/kg. Further, the bioavailability in [2] (mouse, plasma, po, read-out: oral bioavailability (absorbed from the po route)) was approximately 50%. In series [2] (sc, 20 mg/kg), this molecule yielded a Cl of 30.2 mL/min/kg. Moreover, the “absorption by the sc route” value in [2] (sc) is “completely absorbed”. Moreover, the “survival of infected mice” value in the series with S. aureus (Smith strain) [3] is given as “prolonged the survival time of mice relative to vehicle control”.

On to `CN[C@H](CC(C)C)C(=O)N[C@H]1C(=O)N[C@@H](CC(N)=O)C(=O)N[C@H]2C(=O)N[C@H]3C(=O)N[C@H](C(=O)N[C@H](C(=O)O)c4cc(O)cc(O)c4-c4cc3ccc4O)[C@H](O)c3ccc(c(Cl)c3)Oc3cc2cc(c3O[C@@H]2O[C@H](CO)[C@@H](O)[C@H](O)[C@H]2O[C@H]2C[C@](C)(N)[C@H](O)[C@H](C)O2)Oc2ccc(cc2Cl)[C@H]1O` [Vancomycin, reference compound], for which the animals protected result with S. aureus (Smith strain) [1] is given as “protected all animals”. In the series with S. aureus (Smith strain) [3], the “survival of infected mice” value is on record as “protected the animals from this infection”.

The values are drawn from patent publication US20030114445A1, “N3-substituted 6-anilinopyrimidines and methods to treat-Gram-positive bacterial and mycoplasmal infections” (priority 2001, published 2003).
